The nature of series [1]: XRPD of freeze-dried solid dispersions and admixtures. Conditions: as prepared, solid form of psilocybin (PY) in freeze-dried dispersion, physical mixture or starting material. It is filed as physicochemical. How it is done: The samples were prepared in silicon low background holders using light manual pressure to keep the sample surface flat and level with the reference surface of the sample holder. The single crystal Si low background holder has a circular recess (10 mm diameter and about 0.2 mm depth) that holds the sample.
The Rigaku Smart-Lab diffraction system used was configured for Bragg-Brentano reflection geometry using a line source X-ray beam. The Bragg-Brentano geometry was controlled by passive divergence and receiving slits with the sample itself acting as the focusing component for the optics. The figures were created using PlotMon V2.1.1.0.
High-resolution XRPD analysis was performed using Rigaku Smart-Lab diffraction system configured for Debye-Scherrer transmission geometry. The Debye-Scherrer convergent beam geometry utilizes a curved x-ray mirror to focus the incident beam through the sample and onto the detector plane. The axial divergence of the X-ray beam was controlled by 5.0° Soller slits in both the incident and diffracted beam paths.
Freeze-dried solid dispersions of Examples 1-5, and corresponding Reference Examples, were characterized using X-ray powder diffraction (XRPD).

Series [2] in a line: XRPD and mDSC characterization of spray dried solid dispersions (t=0). It is filed as physicochemical. Conditions: Characterization (t = 0). On the procedure:
X-ray power diffraction (XRPD): XRPD patterns were collected on a Bruker AXS D2 diffractometer using Cu Kα radiation (30 kV, 10 mA), θ-θ geometry, using a LynxEye detector from 5-42° […].
The details of the data collection are: • Angular range: 5 to 42° 2θ • Step size: 0.024° 2θ • Collection time: 0.1 seconds per step.
Samples were run under ambient conditions and prepared as flat plate specimens using powder without grinding. Approximately 1-2 mg of the sample was lightly pressed on a silicon wafer to obtain a flat surface.
Modulated differential scanning calorimetry (mDSC): TOPEM® is a temperature modulated DSC method which differs from conventional DSC in allowing the total heat flow to be separated into reversing and non-reversing heat flow components. Such techniques help distinguish between processes or transitions that overlap or lie very close to one another. The glass transition temperature (Tg) was determined from the reversible heatflow component.
TOPEM® DSC data were collected on a Mettler DSC 3+ equipped with a 34 position auto-sampler. The instrument was calibrated for energy and temperature using certified indium. Typically, 3-5 mg of each sample, in a pin-holed aluminium pan, was heated at 2 K·min^−1 from 30° C. to 220° C. with a pulse height of 0.64 K and a pulse width 15-30 sec. A nitrogen purge at 50 mL·min^−1 was maintained over the sample. […]

Marks after values point to notes of the source that are not given here.

Data on two molecules can be found in US20240261306A1, “FORMULATIONS OF PSILOCYBIN” (CYBIN IRL LIMITED, priority 2021, published 2024).

As to `CN(C)CCc1c[nH]c2cccc(OP(=O)(O)O)c12` [Crystalline PY starting material, 3-(2-(dimethylamino)ethyl)-1H-indol-4-yl dihydrogen phosphate], the “XRPD Results” value is “crystalline PY (methanol solvate)^a” in series [1] and “crystalline psilocybin methanol solvate with a small quantity of Form B” in series [1] (listed as crystalline psilocybin starting material).
On to `CN(C)CCc1c[nH]c2cccc(OP(=O)(O)O)c12` [Psilocybin (PY), 3-(2-(dimethylamino)ethyl)-1H-indol-4-yl dihydrogen phosphate], for which, in series [2], the XRPD entry is “Amorphous”. The Tg in series [2] (mDSC) was 161 °C.
